According to US5143927A, “3-(thiazolidone, oxazolidinone, imidazolidinone)-indoles as antiinflammatory agents” (Warner-Lambert Company, priority 1991, dated 1992):
Like-named read-outs stand apart in the source and are kept apart here.

How the values were obtained:
cyclooxygenase = target: T1, cyclooxygenase (Rattus norvegicus, UniProt Q63921); assay: ARBC whole cell cyclooxygenase assay (inhibition of PGF2α formation in RBL-1 cells); assay type: cell-based; details: for inhibition at 10 µM: A23187 stimulated, read-out: ARBC, inhibition of PGF2; for IC50: A23187 (5 μM) stimulated, PGF2α formation, read-out: ARBC, inhibition of PGF2, IC50
T1 construct: endogenous in cells; host or cells: RBL-1 (rat basophilic leukemia cells, from the American Type Culture Collection)
T1 sequence (Q63921 27-602): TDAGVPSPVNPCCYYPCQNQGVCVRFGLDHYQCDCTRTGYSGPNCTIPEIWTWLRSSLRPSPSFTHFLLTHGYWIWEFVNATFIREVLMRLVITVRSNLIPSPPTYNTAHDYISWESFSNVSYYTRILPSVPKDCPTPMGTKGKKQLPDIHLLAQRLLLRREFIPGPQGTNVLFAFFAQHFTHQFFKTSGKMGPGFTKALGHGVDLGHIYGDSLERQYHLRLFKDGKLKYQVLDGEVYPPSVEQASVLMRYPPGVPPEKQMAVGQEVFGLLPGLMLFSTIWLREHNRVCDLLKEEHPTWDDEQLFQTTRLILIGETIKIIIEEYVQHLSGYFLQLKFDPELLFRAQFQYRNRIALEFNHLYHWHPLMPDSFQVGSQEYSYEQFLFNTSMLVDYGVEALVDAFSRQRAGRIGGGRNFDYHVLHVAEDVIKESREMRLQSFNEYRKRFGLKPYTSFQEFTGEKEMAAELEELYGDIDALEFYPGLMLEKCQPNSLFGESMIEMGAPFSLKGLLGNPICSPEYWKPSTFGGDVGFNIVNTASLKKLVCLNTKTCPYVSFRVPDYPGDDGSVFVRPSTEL
Protocol: (§1) ARBL/ARBC WHOLE CELL 5-LIPOXYGENASE AND CYCLOOXYGENASE ASSAYS
(§2) The rat basophilic leukemia cell line (RBL-1) was obtained from the American Type Culture Collection (Rockville, Md.).
(§3) Radioimmunoassay (RIA) kits of LTB4 and PGF2α were obtained from Amersham (Arlington Heights, Ill.) and Seragen (Boston, Mass.), respectively.
(§4) RBL-1 cells are grown in suspension culture in Eagle's minimum essential medium supplemented with 12% fetal bovine serum at 37° C. in an incubator supplied with air 5% carbon dioxide. Cells are harvested by centrifugation. They are washed with cold phosphate buffered saline, pH 7.4 (PBS; NaCl, 7.1 g; Na2 HPO4, 1.15 g; KH2 PO4, 0.2 g; and KCl, 0.2 g/L). Cells are finally suspended in PBS containing 1.0 mM calcium at a density of 2×10^6 cells/mL. Cells are incubated […] test agent (in DMSO) (1% DMSO is without effect on arachidonic acid metabolism) for 10 minutes at room temperature. Calcium ionophore A23187 (5 μM) is added and cells are incubated for 7 minutes at 37° C. The reaction is stopped by chilling the tubes on ice for 10 minutes. Cells are separated by centrifugation and the supernatant is stored at -20° C. Aliquots (100 μL) are analyzed for LTB4 and PGF2α using radioimmunoassay kits as provided by the supplier.
(§5) Table 1 contains biochemical data for compounds of formula I obtained from this whole cell assay as amount of inhibition at 10 μM or IC50 s which are calculated as the concentration of a test compound in micromoles (μM) causing 50% inhibition of LTB4 or PGF2α formation.

5-lipoxygenase = target: T2, 5-lipoxygenase (Rattus norvegicus, UniProt P12527); assay: ARBL whole cell 5-lipoxygenase assay (inhibition of LTB4 formation in RBL-1 cells); assay type: cell-based; details: for inhibition at 10 µM: A23187 stimulated; for IC50: A23187 (5 μM) stimulated, LTB4 formation
T2 construct: endogenous in cells; host or cells: RBL-1 (rat basophilic leukemia cells, from the American Type Culture Collection)
T2 sequence (P12527 1-673): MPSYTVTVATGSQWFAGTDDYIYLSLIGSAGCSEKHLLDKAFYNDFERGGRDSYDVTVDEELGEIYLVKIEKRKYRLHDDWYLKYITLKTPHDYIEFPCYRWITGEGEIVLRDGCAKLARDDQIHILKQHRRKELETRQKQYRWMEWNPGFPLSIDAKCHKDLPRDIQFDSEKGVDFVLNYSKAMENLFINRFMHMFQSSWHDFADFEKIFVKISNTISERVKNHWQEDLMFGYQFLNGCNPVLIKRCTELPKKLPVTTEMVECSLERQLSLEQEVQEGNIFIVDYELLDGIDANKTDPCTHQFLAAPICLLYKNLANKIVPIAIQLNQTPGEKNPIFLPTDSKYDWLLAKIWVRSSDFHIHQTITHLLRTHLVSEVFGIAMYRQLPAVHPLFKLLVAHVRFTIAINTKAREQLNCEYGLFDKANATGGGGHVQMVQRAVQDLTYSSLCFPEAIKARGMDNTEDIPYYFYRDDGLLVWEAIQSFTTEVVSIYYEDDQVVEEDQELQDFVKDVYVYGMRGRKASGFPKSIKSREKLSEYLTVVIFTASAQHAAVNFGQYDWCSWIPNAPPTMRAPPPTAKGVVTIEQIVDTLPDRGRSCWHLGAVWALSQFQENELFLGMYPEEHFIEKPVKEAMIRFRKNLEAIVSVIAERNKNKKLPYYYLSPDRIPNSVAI
Protocol: as §1, §2, §3, §4, §5

inhibition at 10 µM (cyclooxygenase; class symbol, 10 μM) [%]	inhibition at 10 µM (5-lipoxygenase; inhibition at 10 μM) [%]	IC50 (cyclooxygenase) [nM]	IC50 (5-lipoxygenase) [nM]	Structure (SMILES)	also measured
< 40	48			COc1ccc2c(c1)c(/C=C1\SC(N)=NC1=O)c(C)n2C(=O)c1ccc(Cl)cc1 [Example 5, (Z)-5-[[1-(4-Chlorobenzoyl)-5-methoxy-2-methyl-1H-indol-3-yl]methylene]-2-imino-4-thiazolidinone]	
< 40				COc1ccc2[nH]c(C)c(/C=C3\SC(NC#N)=NC3=O)c2c1 [Example 2, (Z)-[4,5-Dihydro-5-[(5-methoxy-2-methyl-1H-indol-3-yl)methylene]-4-oxo-2-thiazolyl]-cyanamide]	inhibition at 10 µM (5-lipoxygenase; class symbol, 10 μM): < 40%
		290	8230	COc1ccc2[nH]c(C)c(/C=C3\SC(SC)=NC3=O)c2c1 [Example 1, (Z) -5-[(5 -Methoxy-2-methyl-1H -indol-3-yl)methylene]-2-(methylthio)-4(5H)-thiazolone]	
	90			COc1ccc2c(c1)c(/C=C1\SC(=S)N(CC(=O)O)C1=O)c(C)n2C(=O)c1ccc(Cl)cc1 [Example 4, (Z)-5-[[1-(4-Chlorobenzoyl)-5-methoxy-2-methyl-1H-indol-3-yl]methylene]-4-oxo-2-thioxo-3-thiazolidine acetic acid]	inhibition at 10 µM (cyclooxygenase; inhibition at 10 μM): 60%
		140	4430	CSC1=NC(=O)/C(=C/c2c(C)[nH]c3ccccc23)S1 [Example 3, (Z) -5-[(2-Methyl-1H-indol-3-yl)methylene]-2-(methylthio)-4(5H)-thiazolone]	
